Reference: patent publication US9145351B2, “Azole derivatives, methods for producing the same, intermediate thereof, agro-horticultural agents” (KUREHA CORPORATION, priority 2009, dated 2015)

Legend:
Assay type in all cases: cell-based
Botritis cinerea = experiment: Plate medium fungicidal assay, gray mold B.c (Experimental Example 5); details: for inhibition at 5 µg/mL / inhibition at 50 µg/mL: read-out: Growth inhibition grade, B.c
Description: (§1) In this Experimental Example, the fungicidal effects of the inventive compounds on various phytopathogenic fungi for plants and hazardous microorganism for industrial materials were examined by the methods described below. Each inventive compound was dissolved in 2 ml of dimethyl sulfoxide. 0.6 ml of this solution was added to 60 nil of a PDA medium (potato dextrose agar medium) at about 60 degrees C., which was mixed thoroughly in a 100-ml conical flask, and poured into a dish, where it was solidified, thereby obtaining a plate medium containing the inventive compound at 50 mg/L and 5 mg/L. On the other hand, a subject microorganism previously cultured on a plate medium was cut out using a cork borer whose diameter was 4 mm, and inoculated to the test compound-containing plate medium described above. […] The growth degree of the microorganism on the test compound-containing plate medium thus observed was compared with the growth degree of the microorganism in the untreated group, and % mycelial growth inhibition was calculated by the following equation. R=100(dc−dt)/dc wherein R=% mycelial extension inhibition, dc=flora diameter in untreated plate, dt=flora diameter in treated plate. The results obtained as described above were evaluated as one of the 5 grades according to the following criteria. […] Gray mold (Botritis cinerea) B.c

Pyricularia oryzae = experiment: microbe, parasite or virus in culture; details: for inhibition at 5 µg/mL / inhibition at 50 µg/mL: Pyricularia oryzae, read-out: Growth inhibition grade, P.o
Rhynchosporium secalis = experiment: Plate medium fungicidal assay, barley leaf blotch R.sec (Experimental Example 5); details: for inhibition at 5 µg/mL / inhibition at 50 µg/mL: Rhynchosporium secalis, read-out: Growth inhibition grade, R.sec
Description: as §1, with “Barley leaf blotch (Rhynchosporium secalis) R.sec” for “Gray mold (Botritis cinerea) B.c”

Giberella fujikuroi = experiment: Plate medium fungicidal assay, rice bakanae disease G.f (Experimental Example 5); details: for inhibition at 5 µg/mL / inhibition at 50 µg/mL: read-out: Growth inhibition grade, G.f
Description: as §1, with “Rice bakanae disease (Giberella fujikuroi) G.f” for “Gray mold (Botritis cinerea) B.c”

Ustilago nuda = experiment: Plate medium fungicidal assay, barley loose smut U.n (Experimental Example 5); details: for inhibition at 5 µg/mL / inhibition at 50 µg/mL: Ustilago nuda, read-out: Growth inhibition grade, U.n
Description: as §1, with “Barley loose smut (Ustilago nuda) U.n” for “Gray mold (Botritis cinerea) B.c”

Sclerotinia sclerotiorum = experiment: Plate medium fungicidal assay, Sclerotinia rot S.s (Experimental Example 5); details: for inhibition at 5 µg/mL / inhibition at 50 µg/mL: Sclerotinia sclerotiorum, read-out: Growth inhibition grade, S.s
Description: as §1, with “Sclerotinia rot (Sclerotinia sclerotiorum) S.s” for “Gray mold (Botritis cinerea) B.c”

[1] = plate medium containing compound at 5 mg/L
[2] = plate medium containing compound at 50 mg/L

| SMILES | Growth inhibition grade, B.c (Botritis cinerea; plate medium, 5 mg/L) | Growth inhibition grade, B.c (Botritis cinerea; plate medium, 50 mg/L) | Growth inhibition grade, P.o (Pyricularia oryzae; plate medium, 5 mg/L) | Growth inhibition grade, P.o (Pyricularia oryzae; plate medium, 50 mg/L) | Growth inhibition grade, R.sec (Rhynchosporium secalis; plate medium, 5 mg/L) | Growth inhibition grade, R.sec (Rhynchosporium secalis; plate medium, 50 mg/L) | Growth inhibition grade, G.f (Giberella fujikuroi; plate medium, 5 mg/L) | Growth inhibition grade, G.f (Giberella fujikuroi; plate medium, 50 mg/L) | Growth inhibition grade, U.n (Ustilago nuda; plate medium, 5 mg/L) | Growth inhibition grade, U.n (Ustilago nuda; plate medium, 50 mg/L) | Growth inhibition grade, S.s (Sclerotinia sclerotiorum; plate medium, 5 mg/L) | Growth inhibition grade, S.s (Sclerotinia sclerotiorum; plate medium, 50 mg/L) | inhibition at 5 µg/mL (Botritis cinerea; [1]) | inhibition at 50 µg/mL (Botritis cinerea; [2]) | inhibition at 5 µg/mL (Pyricularia oryzae) | inhibition at 50 µg/mL (Pyricularia oryzae) | inhibition at 5 µg/mL (Rhynchosporium secalis; [1]) | inhibition at 50 µg/mL (Rhynchosporium secalis; [2]) | inhibition at 5 µg/mL (Giberella fujikuroi; [1]) | inhibition at 50 µg/mL (Giberella fujikuroi; [2]) | other results |
| --- | --- | --- | --- | --- | --- | --- | --- | --- | --- | --- | --- | --- | --- | --- | --- | --- | --- | --- | --- | --- | --- |
| CC1(C)CCC(Cc2ccc(Cl)cc2)C1(O)Cn1ncnc1S (racemic) [compound (2)] | 2 (% Mycerial growth inhibition of less than 40 to 20% or higher) | 5 (% Mycerial growth inhibition of 80% or higher) | 4 (% Mycerial growth inhibition of less than 80 to 60% or higher) | 4 (% Mycerial growth inhibition of less than 80 to 60% or higher) | 5 (% Mycerial growth inhibition of 80% or higher) | 5 (% Mycerial growth inhibition of 80% or higher) | 3 (% Mycelial growth inhibition of less than 60 to 40% or higher) | 4 (% Mycerial growth inhibition of less than 80 to 60% or higher) | 1 (% Mycerial growth inhibition of less than 20%) | 3 (% Mycelial growth inhibition of less than 60 to 40% or higher) | 3 (% Mycelial growth inhibition of less than 60 to 40% or higher) | 5 (% Mycerial growth inhibition of 80% or higher) |  |  |  |  |  |  |  |  |  |
| CC(Cl)=C[C@@]1(C)CC[C@@H](Cc2ccc(Cl)cc2)[C@]1(O)Cn1cncn1 (racemic) [Compound I-15, (1RS,2RS,5SR)-5-(4-chlorobenzyl)-2-(2-chloropropenyl)-2-methyl-1-(1H-1,2,4-triazol-1-ylmethyl)cyclopentanol] |  |  |  |  |  |  |  |  |  |  |  |  | > 80% | > 80% | > 80% | > 80% | > 80% | > 80% | > 80% | > 80% | inhibition at 5 µg/mL (Ustilago nuda; [1]): > 80%; inhibition at 50 µg/mL (Ustilago nuda; [2]): > 80%; inhibition at 5 µg/mL (Sclerotinia sclerotiorum; [1]): > 80%; inhibition at 50 µg/mL (Sclerotinia sclerotiorum; [2]): > 80% |
| C[C@]1(CCl)CC[C@@H](Cc2ccc(-c3ccccc3)cc2)[C@]1(O)Cn1cncn1 (relative stereo) [Compound I-82] |  |  |  |  |  |  |  |  |  |  |  |  |  |  |  |  |  |  |  |  | Growth inhibition grade, B.c (Botritis cinerea; [1]): 5 (% Mycerial growth inhibition of 80% or higher); Growth inhibition grade, B.c (Botritis cinerea; [2]): 5 (% Mycerial growth inhibition of 80% or higher); Growth inhibition grade, P.o (Pyricularia oryzae; [1]): 5 (% Mycerial growth inhibition of 80% or higher); Growth inhibition grade, P.o (Pyricularia oryzae; [2]): 5 (% Mycerial growth inhibition of 80% or higher); Growth inhibition grade, R.sec (Rhynchosporium secalis; [1]): 5 (% Mycerial growth inhibition of 80% or higher); Growth inhibition grade, R.sec (Rhynchosporium secalis; [2]): 5 (% Mycerial growth inhibition of 80% or higher); Growth inhibition grade, G.f (Giberella fujikuroi; [1]): 5 (% Mycerial growth inhibition of 80% or higher); Growth inhibition grade, G.f (Giberella fujikuroi; [2]): 5 (% Mycerial growth inhibition of 80% or higher); Growth inhibition grade, U.n (Ustilago nuda; [1]): 5 (% Mycerial growth inhibition of 80% or higher); Growth inhibition grade, U.n (Ustilago nuda; [2]): 5 (% Mycerial growth inhibition of 80% or higher); Growth inhibition grade, S.s (Sclerotinia sclerotiorum; [1]): 5 (% Mycerial growth inhibition of 80% or higher); Growth inhibition grade, S.s (Sclerotinia sclerotiorum; [2]): 5 (% Mycerial growth inhibition of 80% or higher) |
| O[C@]1(Cn2cncn2)[C@H](Cc2ccc(Cl)cc2)CCC1(CCl)CCl (relative stereo) [Compound I-203, cis-5-(4-chlorobenzyl)-2,2-bis(chloromethyl)-1-(1H-1,2,4-triazol-1-yl)methylcyclopentanol] | 5 (% Mycerial growth inhibition of 80% or higher) | 5 (% Mycerial growth inhibition of 80% or higher) | 5 (% Mycerial growth inhibition of 80% or higher) | 5 (% Mycerial growth inhibition of 80% or higher) | 5 (% Mycerial growth inhibition of 80% or higher) | 5 (% Mycerial growth inhibition of 80% or higher) | 5 (% Mycerial growth inhibition of 80% or higher) | 5 (% Mycerial growth inhibition of 80% or higher) | 5 (% Mycerial growth inhibition of 80% or higher) | 5 (% Mycerial growth inhibition of 80% or higher) | 5 (% Mycerial growth inhibition of 80% or higher) | 5 (% Mycerial growth inhibition of 80% or higher) |  |  |  |  |  |  |  |  |  |
| O[C@]1(Cn2cncn2)[C@H](Cc2ccc(Cl)cc2)CC[C@@H]1C(F)(F)F (racemic) [Compound I-65, (1RS,2SR,5SR)-5-(4-chlorobenzyl)-2-trifluoromethyl-1-(1H-1,2,4-triazol-1-ylmethyl)cyclopentanol] |  |  |  |  |  |  |  |  |  |  |  |  | 60 to 80% | > 80% | 40 to 60% | > 80% | 40 to 60% | > 80% | 60 to 80% | > 80% | inhibition at 5 µg/mL (Ustilago nuda; [1]): 40 to 60%; inhibition at 50 µg/mL (Ustilago nuda; [2]): > 80%; inhibition at 5 µg/mL (Sclerotinia sclerotiorum; [1]): 40 to 60%; inhibition at 50 µg/mL (Sclerotinia sclerotiorum; [2]): > 80% |
